The NIST ThermoML archive (doi:10.1016/j.tca.2010.07.027)

How the values were obtained:
[1] = Liquid; for speed of sound / mass density: 101.33 kPa; for speed of sound: Linear variable-path acoustic interferometer; for mass density: Pycnometric method; for vapor or sublimation pressure: Closed cell (Static) method
[2] = xn = mol fraction of the nth substance listed; conditions: 308.15 K, Liquid; for speed of sound: Frequency=2 MHz, Linear variable-path acoustic interferometer
[3] = excess molar enthalpy (molar enthalpy of mixing); xn = mol fraction of the nth substance listed; conditions: 308.15 K, Liquid, 2-drop calorimeter

C1COCO1 [1,3-dioxolane]
[1]
Conditions | mass density [kg/m3] | speed of sound [m/s] | vapor or sublimation pressure [kPa]
298.15 K | 1047.2 | 1388 | –
308.15 K | – | – | 21.5

Cc1ccccc1N [2-methylaniline]
[1]
Conditions | mass density [kg/m3] | speed of sound [m/s] | vapor or sublimation pressure [kPa]
298.15 K | 994.2 | 1602 | –
308.15 K | – | – | 0.1067

Cc1ccccc1N [2-methylaniline] + C1COCO1
Conditions | excess molar enthalpy [kJ/mol] | excess molar volume [m3/mol] | speed of sound [m/s]
[2], x2 = 0.0549 | – | -8.4e-08 | –
[2], x2 = 0.1122 | – | – | 1539
[2], x2 = 0.1721 | – | -2.51e-07 | –
[2], x2 = 0.1891 | – | – | 1526
[2], x2 = 0.2239 | – | -3.12e-07 | –
[2], x2 = 0.2413 | – | – | 1516
[2], x2 = 0.2769 | – | -3.75e-07 | –
[2], x2 = 0.2911 | – | – | 1506
[2], x2 = 0.3212 | – | – | 1500
[2], x2 = 0.351 | – | -4.43e-07 | –
[2], x2 = 0.4011 | – | – | 1484
[2], x2 = 0.4217 | – | -4.86e-07 | –
[2], x2 = 0.4513 | – | – | 1473
[2], x2 = 0.5518 | – | -5.12e-07 | –
[2], x2 = 0.5651 | – | – | 1444
[2], x2 = 0.5889 | – | -5.12e-07 | –
[2], x2 = 0.6218 | – | -4.97e-07 | –
[2], x2 = 0.6637 | – | – | 1415
[2], x2 = 0.6831 | – | -4.66e-07 | –
[2], x2 = 0.6989 | – | – | 1404
[2], x2 = 0.7512 | – | – | 1386
[2], x2 = 0.7523 | – | -4.07e-07 | –
[2], x2 = 0.8147 | – | -3.28e-07 | –
[2], x2 = 0.8319 | – | – | 1358
[2], x2 = 0.8916 | – | -2.16e-07 | –
[2], x2 = 0.9071 | – | – | 1330
[2], x2 = 0.9407 | – | -1.23e-07 | –
[2], x2 = 0.9713 | – | – | 1306
[3], x2 = 0.0754 | -0.221 | – | –
[3], x2 = 0.1632 | -0.464 | – | –
[3], x2 = 0.2424 | -0.647 | – | –
[3], x2 = 0.3213 | -0.786 | – | –
[3], x2 = 0.4001 | -0.873 | – | –
[3], x2 = 0.4843 | -0.906 | – | –
[3], x2 = 0.5655 | -0.871 | – | –
[3], x2 = 0.6112 | -0.827 | – | –
[3], x2 = 0.6979 | -0.696 | – | –
[3], x2 = 0.7432 | -0.609 | – | –
[3], x2 = 0.808 | -0.467 | – | –
[3], x2 = 0.8831 | -0.281 | – | –
[3], x2 = 0.9311 | -0.163 | – | –
[3], x2 = 0.9621 | -0.0868 | – | –

CNc1ccccc1 [N-methylaniline]
[1]
Conditions | mass density [kg/m3] | speed of sound [m/s] | vapor or sublimation pressure [kPa]
298.15 K | 982.4 | 1572 | –
308.15 K | – | – | 0.0667

CNc1ccccc1 [N-methylaniline] + C1COCO1
Conditions | excess molar enthalpy [kJ/mol] | excess molar volume [m3/mol] | speed of sound [m/s]
[2], x2 = 0.0415 | – | – | 1521
[2], x2 = 0.0709 | – | -1.8e-08 | –
[2], x2 = 0.1211 | – | – | 1511
[2], x2 = 0.1771 | – | -4.5e-08 | –
[2], x2 = 0.2001 | – | – | 1501
[2], x2 = 0.2387 | – | -6.3e-08 | –
[2], x2 = 0.2754 | – | – | 1490
[2], x2 = 0.2958 | – | -8e-08 | –
[2], x2 = 0.3349 | – | -8.8e-08 | –
[2], x2 = 0.3512 | – | – | 1477
[2], x2 = 0.3916 | – | -9.5e-08 | –
[2], x2 = 0.4222 | – | – | 1463
[2], x2 = 0.4361 | – | -1.02e-07 | –
[2], x2 = 0.4912 | – | -1.1e-07 | –
[2], x2 = 0.4943 | – | – | 1447
[2], x2 = 0.5421 | – | – | 1436
[2], x2 = 0.5531 | – | -1.12e-07 | –
[2], x2 = 0.6213 | – | – | 1415
[2], x2 = 0.6272 | – | -1.04e-07 | –
[2], x2 = 0.6992 | – | -9.3e-08 | –
[2], x2 = 0.7003 | – | – | 1393
[2], x2 = 0.7417 | – | -8.8e-08 | –
[2], x2 = 0.7832 | – | – | 1367
[2], x2 = 0.8545 | – | -5.1e-08 | –
[2], x2 = 0.8632 | – | – | 1341
[2], x2 = 0.9011 | – | – | 1329
[2], x2 = 0.9213 | – | -3e-08 | –
[2], x2 = 0.9632 | – | – | 1307
[3], x2 = 0.0853 | -0.382 | – | –
[3], x2 = 0.1423 | -0.543 | – | –
[3], x2 = 0.2533 | -0.678 | – | –
[3], x2 = 0.3765 | -0.652 | – | –
[3], x2 = 0.4531 | -0.59 | – | –
[3], x2 = 0.5123 | -0.532 | – | –
[3], x2 = 0.5976 | -0.44 | – | –
[3], x2 = 0.6432 | -0.388 | – | –
[3], x2 = 0.7123 | -0.313 | – | –
[3], x2 = 0.7943 | -0.235 | – | –
[3], x2 = 0.8543 | -0.171 | – | –
[3], x2 = 0.8912 | -0.135 | – | –
[3], x2 = 0.9321 | -0.0932 | – | –
[3], x2 = 0.9721 | -0.0374 | – | –

Nc1ccccc1 [aniline]
[1], 298.15 K
Conditions | mass density [kg/m3] | speed of sound [m/s] | vapor or sublimation pressure [kPa]
– | 1017.2 | 1635 | 0.0933

Nc1ccccc1 [aniline] + C1COCO1
Conditions | excess molar enthalpy [kJ/mol] | excess molar volume [m3/mol] | speed of sound [m/s]
[2], x2 = 0.0789 | – | -1.34e-07 | –
[2], x2 = 0.0812 | – | – | 1587
[2], x2 = 0.1132 | – | -1.88e-07 | –
[2], x2 = 0.1413 | – | – | 1576
[2], x2 = 0.2204 | – | -3.3e-07 | –
[2], x2 = 0.2212 | – | – | 1557
[2], x2 = 0.2916 | – | – | 1539
[2], x2 = 0.3111 | – | -4.28e-07 | –
[2], x2 = 0.3488 | – | – | 1523
[2], x2 = 0.4281 | – | -4.97e-07 | –
[2], x2 = 0.4621 | – | – | 1489
[2], x2 = 0.4916 | – | -5.16e-07 | –
[2], x2 = 0.5219 | – | – | 1470
[2], x2 = 0.523 | – | -5.17e-07 | –
[2], x2 = 0.5928 | – | – | 1447
[2], x2 = 0.5999 | – | -4.93e-07 | –
[2], x2 = 0.6342 | – | -4.77e-07 | –
[2], x2 = 0.6414 | – | – | 1431
[2], x2 = 0.7114 | – | -4.18e-07 | –
[2], x2 = 0.7131 | – | – | 1406
[2], x2 = 0.8001 | – | – | 1374
[2], x2 = 0.8202 | – | -2.94e-07 | –
[2], x2 = 0.8715 | – | – | 1347
[2], x2 = 0.8913 | – | -1.9e-07 | –
[2], x2 = 0.9213 | – | – | 1327
[2], x2 = 0.9233 | – | -1.38e-07 | –
[2], x2 = 0.9711 | – | – | 1307
[2], x2 = 0.9718 | – | -5.25e-08 | –
[3], x2 = 0.0613 | -0.162 | – | –
[3], x2 = 0.1622 | -0.413 | – | –
[3], x2 = 0.2241 | -0.548 | – | –
[3], x2 = 0.2774 | -0.651 | – | –
[3], x2 = 0.3503 | -0.768 | – | –
[3], x2 = 0.4231 | -0.848 | – | –
[3], x2 = 0.5511 | -0.9 | – | –
[3], x2 = 0.5812 | -0.896 | – | –
[3], x2 = 0.6223 | -0.873 | – | –
[3], x2 = 0.6816 | -0.817 | – | –
[3], x2 = 0.7519 | -0.715 | – | –
[3], x2 = 0.8127 | -0.587 | – | –
[3], x2 = 0.8928 | -0.371 | – | –
[3], x2 = 0.9514 | -0.182 | – | –
